Experimental data as given in the supplement of paper PMC11616607.

Key:
Experiment in all cases: drug sensitivity score (DSS) from 5-point dose-response viability curve (DSS (area-under-curve based score)); higher = more sensitive (stronger growth inhibition or killing); extreme values may be limits of the assay
Settings in all cases: exposure time: 72 h; concentration range: 5 concentrations over 10,000-fold range
[1] = test system: CAOV3
Method in brief: (§1)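 Drug sensitivity scores were calculated in Breeze software for each cell line and drug pair; higher scores indicate more sensitivity. A score of zero indicates no response. The underlying assay used 384-well plates: drugs were placed by an Echo 550 acoustic dispenser at five concentrations spanning a 10,000-fold range, 1,500 ovarian cancer or normal ovarian cells were added per well, and cells were kept 3 days at 37°C, 5% CO2. Viability was then measured with CellTiter-Glo luminescence on a PHERAstar FS.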

[2] = test system: COV318
Method in brief: as §1

[3] = test system: COV362
Method in brief: as §1

[4] = test system: HOSE1C
Method in brief: as §1

[5] = test system: HOSE2C
Method in brief: as §1

[6] = test system: JHOS2
Method in brief: as §1

[7] = test system: Kuramochi
Method in brief: as §1

[8] = test system: OV90
Method in brief: as §1

[9] = test system: OVCAR4
Method in brief: as §1

[10] = test system: OVCAR5
Method in brief: as §1

[11] = test system: OVCAR8
Method in brief: as §1

[12] = test system: Ovsaho
Method in brief: as §1

SMILES | drug sensitivity score [1] | drug sensitivity score [2] | drug sensitivity score [3] | drug sensitivity score [4] | drug sensitivity score [5] | drug sensitivity score [6] | drug sensitivity score [7] | drug sensitivity score [8] | drug sensitivity score [9] | drug sensitivity score [10] | drug sensitivity score [11] | drug sensitivity score [12]
CNC(=O)c1ccc(N2C(=S)N(c3ccc(C#N)c(C(F)(F)F)c3)C(=O)C2(C)C)cc1F [Enzalutamide] | 0 | 0.4 | 0 | 0 | 0 | 0 | 1.7 | 0 | 0.1 | 0.2 | 0 | 2.3
Cn1cc(C2=C(c3cn(C4CCN(Cc5ccccn5)CC4)c4ccccc34)C(=O)NC2=O)c2ccccc21 [Enzastaurin] | 0 | 0 | 1.6 | 0.2 | 1.5 | 0.1 | 0 | 0 | 0 | 2.6 | 4.2 | 2
NS(=O)(=O)NCCNc1nonc1/C(=N/O)Nc1ccc(F)c(Br)c1 [Epacadostat] | 0 | 1 | 0 | 0 | 0 | 0.9 | 0 | 0.4 | 0 | 0.3 | 0 | 0.1
COc1cccc2c1C(=O)c1c(O)c3c(c(O)c1C2=O)C[C@@](O)(C(=O)CO)C[C@@H]3O[C@H]1C[C@H](N)[C@@H](O)[C@H](C)O1 [Epirubicin] | 9.9 | 0.7 | 1 | 9.6 | 10.3 | 5.7 | 4.6 | 5.7 | 2.9 | 5.1 | 8.9 | 7.1
CCOc1ccccc1-n1c(C(C)N2CCN(C(=O)COc3ccc(Cl)cc3)CC2)nc2ccccc2c1=O (stereo not drawn) [Erastin] | 0.9 | 1.9 | 1.4 | 0 | 0 | 0 | 0 | 1.4 | 9.1 | 0.9 | 7.9 | 0
COc1cc(OC)cc(N(CCNC(C)C)c2ccc3ncc(-c4cnn(C)c4)nc3c2)c1 [Erdafitinib] | 0 | 3.5 | 0 | 3.2 | 11.2 | 0 | 0 | 0 | 2.6 | 0 | 0 | 0
C=C1C[C@@H]2CC[C@@]34C[C@H]5O[C@H]6[C@@H](O3)[C@H]3O[C@H](CC[C@@H]3O[C@H]6[C@H]5O4)CC(=O)C[C@@H]3[C@@H](OC)[C@@H](C[C@H](O)CN)O[C@H]3C[C@H]3O[C@@H](CC[C@@H]1O2)C[C@@H](C)C3=C [Eribulin] | 25.8 | 4.2 | 7.9 | 25.8 | 24.3 | 9.1 | 12.9 | 20.3 | 6.3 | 20.5 | 24 | 12
C#Cc1cccc(Nc2ncnc3cc(OCCOC)c(OCCOC)cc23)c1 [Erlotinib] | 7.5 | 0.8 | 0.1 | 0 | 0.3 | 3 | 1.6 | 1.5 | 2 | 4.4 | 2.5 | 4.8
COc1cc([C@@H]2c3cc4c(cc3[C@@H](O[C@@H]3O[C@@H]5CO[C@@H](C)O[C@H]5[C@H](O)[C@H]3O)[C@H]3COC(=O)[C@H]23)OCO4)cc(OC)c1O [Etoposide] | 9.2 | 1.7 | 0.1 | 6.5 | 10.1 | 4.5 | 1.8 | 6.1 | 0 | 4.1 | 8.6 | 7
CO[C@H]1C[C@@H]2CC[C@@H](C)[C@@](O)(O2)C(=O)C(=O)N2CCCC[C@H]2C(=O)O[C@H]([C@H](C)C[C@@H]2CC[C@@H](OCCO)[C@H](OC)C2)CC(=O)[C@H](C)/C=C(\C)[C@@H](O)[C@@H](OC)C(=O)[C@H](C)C[C@H](C)/C=C/C=C/C=C/1C [Everolimus] | 4.8 | 2.2 | 0.6 | 4.3 | 6.3 | 4.7 | 5.9 | 10 | 2.5 | 6.2 | 5.5 | 4
C=C1C[C@@H]2[C@H](CC[C@]3(C)C(=O)CC[C@@H]23)[C@@]2(C)C=CC(=O)C=C12 [Exemestane] | 0 | 0 | 0 | 0 | 0 | 0 | 0 | 0.4 | 0 | 0 | 0 | 0
CCn1c(=O)c(-c2ccc(Cl)cc2Cl)cc2cnc(Nc3ccc(N4CCNCC4)c(F)c3)nc21 [FRAX486] | 4.2 | 4.2 | 6.3 | 7.6 | 12.1 | 3.7 | 4.3 | 5.5 | 5.1 | 4.9 | 3.8 | 7
Cc1cnc(Nc2ccc(OCCN3CCCC3)cc2)nc1Nc1cccc(S(=O)(=O)NC(C)(C)C)c1 [Fedratinib] | 6.5 | 3.7 | 6.1 | 7.1 | 8.5 | 5.3 | 7.7 | 8.8 | 5.2 | 7.2 | 7.1 | 7.4
CON(C)C(=O)N1N=C(c2cc(F)ccc2F)S[C@@]1(CCCN)c1ccccc1 [Filanesib] | 21.3 | 8.7 | 1.4 | 21.8 | 16.2 | 7.4 | 9.5 | 10.8 | 6.8 | 17.6 | 17.7 | 8.8
O=C(Nc1nc2cccc(-c3ccc(CN4CCS(=O)(=O)CC4)cc3)n2n1)C1CC1 [Filgotinib] | 2.3 | 3.4 | 0.2 | 0.1 | 0 | 1.1 | 5.1 | 3.2 | 2.6 | 1.8 | 2.5 | 2.5
CC(C)(C)NC(=O)[C@H]1CC[C@H]2[C@@H]3CC[C@H]4NC(=O)C=C[C@]4(C)[C@H]3CC[C@]12C [Finasteride] | 0 | 0 | 0 | 0 | 0 | 0 | 0 | 0 | 0 | 0 | 0 | 0
CCCCCCCCc1ccc(CCC(N)(CO)CO)cc1 [Fingolimod] | 6 | 7 | 6.2 | 7.4 | 5.4 | 5.5 | 7.5 | 6.2 | 7.5 | 6.4 | 6.8 | 7.6
O=c1[nH]c(=O)n([C@H]2C[C@H](O)[C@@H](CO)O2)cc1F [Floxuridine] | 14.3 | 0 | 5.4 | 4.7 | 2.5 | 0.8 | 8.7 | 12.3 | 9.3 | 8.1 | 18.1 | 6.2
Nc1nc(F)nc2c1ncn2[C@@H]1O[C@H](CO)[C@@H](O)[C@@H]1O [Fludarabine] | 0.2 | 0 | 0.5 | 25.2 | 22.6 | 0 | 0 | 1.5 | 0.2 | 0 | 4.4 | 0.1
O=c1[nH]cc(F)c(=O)[nH]1 [Fluorouracil] | 2 | 0 | 0 | 2.5 | 0 | 0 | 0.6 | 2.3 | 0 | 2.7 | 2.3 | 2.6
CC(C)C(=O)Nc1ccc([N+](=O)[O-])c(C(F)(F)F)c1 [Flutamide] | 0 | 0.2 | 0 | 0.2 | 0 | 0.3 | 0.7 | 0 | 0.5 | 0.1 | 0.3 | 0
COc1cc2c(Oc3ccc(NC(=O)C4(C(=O)Nc5ccc(F)cc5)CC4)cc3F)ccnc2cc1OCCCN1CCOCC1 [Foretinib] | 6.9 | 1.3 | 1.2 | 1.9 | 4.5 | 0.5 | 2.7 | 3.8 | 3.2 | 5.3 | 1 | 1.9
COc1cc(Nc2ncc(F)c(Nc3ccc4c(n3)N(COP(=O)(O)O)C(=O)C(C)(C)O4)n2)cc(OC)c1OC [Fostamatinib] | 0 | 1.5 | 0.8 | 2 | 8.4 | 0.8 | 2.4 | 2.9 | 2.9 | 3.7 | 0.3 | 2.4
C[C@]12CC[C@@H]3c4ccc(O)cc4C[C@@H](CCCCCCCCC[S+]([O-])CCCC(F)(F)C(F)(F)F)[C@H]3[C@@H]1CC[C@@H]2O (stereo partly drawn) [Fulvestrant] | 0 | 0 | 0 | 0 | 0 | 0 | 0 | 0 | 0 | 0 | 0 | 0
O=C(NOCCO)c1ccc2cncn2c1Nc1ccc(I)cc1F [GDC-0623] | 5 | 0 | 2.3 | 0 | 1.3 | 0.6 | 0.1 | 16.3 | 6.3 | 6.1 | 0.4 | 0.8
C[C@H]1CN(C2COC2)CCN1c1ccc(Nc2cc(-c3ccnc(N4CCn5c(cc6c5CC(C)(C)C6)C4=O)c3CO)cn(C)c2=O)nc1 [GDC-0853] | 0 | 0 | 0 | 0 | 0 | 0 | 0 | 0 | 0 | 0 | 0 | 0
O[C@H](C[C@H]1c2c(F)cccc2-c2cncn21)[C@H]1CC[C@H](O)CC1 [GDC-0919] | 0.1 | 3 | 0 | 0 | 0 | 0.4 | 0.1 | 0 | 0.8 | 0.6 | 0.7 | 0
CNc1nc(Nc2cn(C(C)(C)C#N)nc2C)ncc1C(F)(F)F [GNE-0877] | 0 | 0 | 0 | 0 | 0 | 0 | 0 | 0 | 0 | 0 | 0 | 0
CCNc1nc(Nc2cc(F)c(C(=O)N3CCOCC3)cc2OC)ncc1C(F)(F)F [GNE-7915] | 0 | 0 | 0 | 0 | 0 | 0 | 0 | 0 | 0 | 0 | 0 | 0
